Laboratory results as given in PubChem BioAssay (NCI).
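How tested: cells in 96-well plates exposed to compound for 48 hours at five concentrations. Here, GI50 denotes the concentration required for 50% inhibition of growth. TGI marks complete inhibition of growth.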

Experiments:
Assay in all cases: DTP human tumour cell line panel, 48 h
[1] = test system: NCI-H226 lung
[2] = test system: SF-295 CNS
[3] = test system: K-562 leukemia
[4] = test system: CCRF-CEM leukemia
[5] = test system: SW-620 colon
[6] = test system: M14 melanoma
[7] = test system: OVCAR-3 ovarian
[8] = test system: OVCAR-5 ovarian
[9] = test system: U251 CNS
[10] = test system: MDA-MB-231 breast
[11] = test system: SNB-19 CNS
[12] = test system: PC-3 prostate
[13] = test system: NCI-H522 lung
[14] = test system: HL-60(TB) leukemia
[15] = test system: HT29 colon
[16] = test system: ACHN renal
[17] = test system: SK-OV-3 ovarian
[18] = test system: RPMI-8226 leukemia
[19] = test system: RXF 393 renal
[20] = test system: HOP-92 NSCLC
[21] = test system: MDA-MB-435
[22] = test system: NCI/ADR-RES ovarian
[23] = test system: EKVX NSCLC
[24] = test system: T-47D breast
[25] = test system: UACC-62 melanoma
[26] = test system: CAKI-1 renal
[27] = test system: DU-145 prostate
[28] = test system: NCI-H460 lung

## CNC(=O)c1cncc(/C=C/c2c(Cl)cccc2Cl)c1
[1]
  GI50: > 24.1 µM
  TGI: > 25 µM
[2]
  GI50: > 12.8 µM
  TGI: > 25 µM
[3]
  GI50: 8.14 µM
  TGI: > 25 µM
[4]
  GI50: > 25 µM
  TGI: > 25 µM
[5]
  GI50: > 25 µM
  TGI: > 25 µM
[6]
  GI50: > 23.4 µM
  TGI: > 25 µM
[7]
  GI50: 20.9 µM
  TGI: > 25 µM
[8]
  GI50: > 25 µM
  TGI: > 25 µM
[9]
  GI50: > 25 µM
  TGI: > 25 µM
[10]
  GI50: > 15.8 µM
  TGI: > 25 µM
[11]
  GI50: > 22.4 µM
  TGI: > 25 µM
[12]
  GI50: > 21.6 µM
  TGI: > 25 µM
[13]
  GI50: 8.38 µM
  TGI: > 25 µM
[14]
  GI50: > 25 µM
  TGI: > 25 µM
[15]
  GI50: 15.1 µM
  TGI: > 25 µM
[16]
  GI50: > 23.2 µM
  TGI: > 25 µM
[17]
  GI50: > 25 µM
  TGI: > 25 µM
[18]
  GI50: > 25 µM
  TGI: > 25 µM
[19]
  GI50: 8.89 µM
  TGI: > 25 µM
[20]
  GI50: 2.31 µM
  TGI: > 25 µM
[21]
  GI50: 6.88 µM
  TGI: > 25 µM
[22]
  GI50: > 21.2 µM
  TGI: > 25 µM
[23]
  GI50: > 25 µM
  TGI: > 25 µM
[24]
  GI50: > 18.1 µM
  TGI: > 25 µM
[25]
  GI50: > 19.8 µM
  TGI: > 25 µM
[26]
  GI50: 13.6 µM
  TGI: > 25 µM
[27]
  GI50: > 25 µM
  TGI: > 25 µM
[28]
  GI50: > 25 µM
  TGI: > 25 µM
